Residues, ends and D or L forms follow the SMILES beside them. *: point of attachment. Cbz = O=C(OCc1ccccc1)*; CH2F = FC*
Legend:
[1] = test system: iC2C12-DUX4 myotubes; assay: cells; type: cell-based, mouse
Description: FIG. 4: Ripk3 inhibition decreases DUX4-mediated cell death in iC2C12-DUX4 myotubes. (A) iC2C12-DUX4 viability in presence of dox 1000 ng/ml and treated with different doses of Z-VAD, Necrostatin-1 or GSK'872. (B) Cell viability in presence of dox 1000 ng/ml with the different compounds alone or in combination. Z: Z-vad (20 μM); N: necrostatin-1 (30 μM), N+: necrostatin-1 (90 μM), G: GSK'872 (2 μM); G+: GSK'872 (4 μM).
(§1) Inducible iC2C12-Dux4 (Bosnakovski, 2008) were cultured in DMEM high glucose with GlutaMAX and no Sodium Pyruvate (Gibco), 20% fetal bovine serum, and 800 μg/mL G418 (Gibco). For myoblast experiments, iC2C12-Dux4 were seeded into white 96-well plates (3000 cells per well) in growth medium. After 24 h, DUX4 expression was induced by adding doxycycline (Sigma-Aldrich) at a final concentration of 50 to 1000 ng/mL. For myotubes experiments, iC2C12-Dux4 were seeded into white 96-well plates (1500 cells per well) in growth medium. After 48 h, cells were differentiated with DMEM, 2% horse serum and 10 μg/mL insulin. DUX4 expression was induced after 4 days of differentiation to not disturb myotube formation (Bosnakovski, 2008). Inhibition of apoptosis and/or necroptosis was simultaneously realized to DUX4 induction for 24 h using 20 μM of pan-caspase inhibitor Z-VAD.fmk (Merk Chemicals), 30 μM Necrostatin-1, 3 μM GSK872, 0.2 Cyclosporin A (Cambridge Bioscience). Cell survival was determined by CellTiter-Glo luminescent cell viability assay (Promega), membrane permeability by CytoTox-Glo cytotoxicity assay (Promega) and caspase activation by Caspase-Glo 3/7 Assay (Promega) according to the manufacturer's instructions. Luminescence was read by a microplate reader Tecan.
The effects of the different inhibitors on iC2C12-DUX4 myotubes were investigated. Again, the results are expressed as the percentage of live cells in the presence of the different compounds compared to the control condition without. No effect of Z-VAD were observed arguing against a major role of caspases in DUX4-mediated toxicity (FIG. 4A). When the cells were cultivated with necrostatin-1 in the presence of dox (1000 ng/ml), necrostatin-1 concentrations […] 60 μM conferred a protection against cell death (up to 60%±6 of viable cells in presence of 60 μM necrostatin-1 compared to 39%±1 without, FIG. 4A), necrostatin-1 concentrations of 150 or 300 μM leading to up to 85%±2 viable cells (FIG. 4A). […] The different compounds were next added separately or together to iC2C12-DUX4 myotubes that were incubated with dox (1000 ng/ml). […] Indeed, at low (2 μM) or high (4 μM) concentration, GSK'872 increased cell viability by 2.1 fold (FIG. 4D). […] Ripk3 but also to a lesser extent Ripk1, participated in DUX4-mediated cell toxicity.

[2] = test system: iC2C12-DUX4 myoblasts; assay: Cell viability (ATP assay, CellTiter-Glo) of dox-induced iC2C12-DUX4 myoblasts with death inhibitors; type: cell-based, mouse; details: for increase in the number of viable cells: inhibitor present; for optimal dose from dose response: with or without doxycycline 200 ng/ml, 24 hours after dox induction
Description: (A) Cell viability of iC2C12-DUX4 myoblasts at 48 h of induction without or with dox (200 ng/ml) and treatment with various concentrations of the pan-caspase inhibitor Z-VAD (μM). […] Ctrl: DMSO alone.
FIG. 10: Role of necroptosis in the DUX4 mediated cell death. Several death inhibitors were added at different concentrations alone to iC2C12 myoblasts in presence or not of Doxycycline 200 ng/ml.
as §1, with “For” for “Inducible iC2C12-Dux4 (Bosnakovski, 2008) were cultured in DMEM high glucose with GlutaMAX and no Sodium Pyruvate (Gibco), 20% fetal bovine serum, and 800 μg/mL G418 (Gibco). For”, “DUX4 expression was induced after 4 days of differentiation to not disturb myotube formation (Bosnakovski, 2008).” left out
The iC2C12-DUX4 viability was assessed for 2 different doses of dox and the results are expressed as the percentage of cells alive in the presence of the different compounds compared to the condition without them. Z-VAD was always added to eliminate any bias linked to caspases 3/7 activation/synergic effect.

[3] = test system: Cre-inducible FLExDUX4 mice; assay: In vivo GSK'872 treatment of tamoxifen-induced Cre-inducible FLExDUX4 mice; set-up: species or system mouse; details: GSK'872 2 mg/kg for 5 days IP; tamoxifen 10 mg/kg for 2 days IP; mice killed at 7 weeks
Description: Mice were killed at the age of 7 weeks. (A) Total body weight was measured at day 0 and 7. Y-axis represents the weight after tamoxifen at D7 relative to the weight before tamoxifen injection at DO. (BC) Weights of the tibialis anterior (TA) (B) and quadriceps (C) were measured at D7. (DE) Expression levels of 2 genes (Tm7sf4 (D) and DuxBl (E)) downstream of DUX4 were measured in the quadriceps. Y-axis represents arbitrary units relative to Psma2. • * P<0.05, **P<0.01, ***P<0.001, one-way ANOVA followed by a Tukey's multiple comparison test.
Three-week-old animals were weighted 3 times a week, after weaning. The tamoxifen (MP Biomedicals) injections were realized according to Jones et al (Jones, 2018). Six-week-old mice were injected (IP) with Tamoxifen (TMX) on two consecutive days for a final concentration of 10 mg/kg. Following TMX injection, animals were daily weighed, and sacrificed after a week. Muscles were harvested and frozen in liquid nitrogen or liquid-nitrogen-cooled isopentane for further analysis.

[4] = test system: Caspase 3/7; assay: Caspase-Glo 3/7 Assay in iC2C12-DUX4 cells; type: cell-based, mouse; details: Z-Vad 30 μM or 50 μM, different concentrations of doxycycline
Description: FIG. 9: Apoptosis is not involved in iC2C12-DUX4 death. (A) Cell viability on iC2C12-DUX4 myoblasts in the presence of different concentrations of DMSO induced a non-specific increase of cell survival. […] Caspase 3/7 activity was measured using the Caspase-Glo 3/7 Assay (Promega) according to the manufacturer's instructions.
as §1, with “Inhibition of apoptosis and/or necroptosis was simultaneously realized to DUX4 induction for 24 h using 20 μM of pan-caspase inhibitor Z-VAD.fmk (Merk Chemicals), 30 μM Necrostatin-1, 3 μM GSK872, 0.2 Cyclosporin A (Cambridge Bioscience).” left out

[5] = test system: necroptotic genes (Ripk1, Ripk3 and Mlk1) and DUX4-network genes (Tm7sf4, mDuxb1 and Wfdc3); assay: mRNA expression of necroptotic and DUX4-network genes in treated Actal Cre-FLEx DUX4 mice; type: in vivo, mouse
Description: Dabrafenib (30 mg/kg) was given by oral (p.o.) gavage to 4-5 week old Actal Cre-FLEx DUX4 animals 5 times/week for 4 weeks. Tamoxifen was intraperitoneally weakly injected (2 mg/kg). […] Expression of necroptotic genes (Ripk1, Ripk3 and Mlk1) and DUX4-network genes (Tm7sf4, mDuxb1 and Wfdc3) were measured.
For muscles, cryopreserved tissues were transferred in tube containing 1.4 mm ceramic beads (FastPrep, MP biomedicals, UK) plus 1 mL of Trizol (Thermo Fisher Scientific, Paisley, UK) and shaken at 10000 rpm for 40 s. Total RNAs from cells or tissue were extracted using Trizol (Thermo Fisher) according the manufacturer's protocol. The quantity of RNA was determined using a nanodrop ND-1000 spectrophotometer (Thermo Scientific, Wilmington, Del., USA). Reverse transcription was performed on 1 μg of total RNA in a 10 μL final volume (Roche Transcriptor First Strand cDNA Synthesis kit). Quantitative PCR (qPCR) was designed according to the MIQE standards. qPCRs were performed on a LightCycler 480 Real-Time PCR System (Roche) in a final volume of 9 with 0.2 μL of RT product, 0.4 μM each of forward and reverse primers (see Tables 2 and 3), and 4.5 μL of SYBRGreen Mastermix (Roche).
Dabrafenib (30 mg/kg) was administered by oral (p.o.) gavage to 4-5 week old animals 5 times/week for 4 weeks. Tamoxifen was intraperitoneally injected weakly (2 mg/kg).

[6] = Mus musculus, Myotube, read-out: viable cells

With `CC(C)S(=O)(=O)c1ccc2nccc(Nc3ccc4scnc4c3)c2c1` [GSK'872, Benzothiazol-5-yl-[6-(propane-2-sulfonyl)-quinolin-4-yl]-amine] the viability at 3 µM [1, 6] was 67%, the viability at 6 µM [1, 6] was 77% and the “increase of the number of viable cells” value ([1]; iC2C12-DUX4 myotubes, GSK'872 in combination with Z-Vad) was 2 fold. For the same compound, the “increase of cell viability” value ([1]; myotubes, dox 1000 ng/ml, GSK'872 low (2 μM) or high (4 μM) concentration) was 2.1 fold, the “increase in the number of viable cells” value ([2]; iC2C12 myoblasts) was 10% and the “optimal dose from dose response” value ([2]; myoblasts) was 3 µM. For the same compound, the “DUX4-mediated cell death in vivo” value [3] was “decreased DUX4-mediated cell death in vivo”.

`COC(=O)C[C@H](NC(=O)[C@H](C)NC(=O)[C@@H](NC(=O)OCc1ccccc1)C(C)C)C(=O)CF` [Z-VAD] (Cbz-Val-Ala-Asp(OMe)-CH2F) was tested, and the cell survival ([1]; iC2C12-DUX4 myotubes, Z-vad added in vitro) was “did not increase cell survival”, the “increase of cell survival” value ([1]; myotubes, dox 1000 ng/ml, Z-VAD alone (20 μM)) was 10%±10 and the “effect on live cells” value ([1]; myotubes, dox 1000 ng/ml, different doses of Z-VAD) was “No effect”. For the same compound, the “percentage of viable cells” value ([2]; iC2C12 myoblasts, addition of Z-Vad) was “did not modify the percentage of viable cells”, the “cell survival with and without Z-VAD” value ([2]; myoblasts, 200 ng/ml dox, different doses of Z-VAD) was “No change in cell survival” and the “caspase 3/7 activity after DUX4 expression” value [4] was “correctly inhibited”.

In the case of `CC(C)(C)c1nc(-c2cccc(NS(=O)(=O)c3c(F)cccc3F)c2F)c(-c2ccnc(N)n2)s1` [dabrafenib, N-{3-[5-(2-aminopyrimidin-4-yl)-2-tert-butylthiazol-4-yl]-2-fluorophenyl}-2,6-difluorobenzenesulfonamide], the “mean expression of Ripk1, Ripk3, Mlk1, Tm7sf4, mDuxb1 and Wfdc3 relative to untreated control animals” value ([5]; dabrafenib 30 mg/kg p.o. 5 times/week for 4 weeks, 4-5 week old animals, tamoxifen 2 mg/kg) is reported as “decreased mean expression of almost all of these genes”.

With `Nc1cccc2c(=O)[nH][nH]c(=O)c12.[Na]` [galavit, 3-aminophthalhydrazide monosodium salt] the “mean expression of Ripk1, Ripk3, Mlk1, Tm7sf4, mDuxb1 and Wfdc3 relative to untreated control animals” value ([5]; galavit 4.5 mg/kg IP daily for 3 days, 7-8 week old males, tamoxifen 10 mg/kg day 0 and 1) was “decreased mean expression of almost all of these genes”.

With `CN1C(=O)C(Cc2c[nH]c3ccccc23)NC1=S` (stereo not shown) [necrostatin-1, 5-(1H-indol-3-ylmethyl)-3-methyl-2-sulfanylideneimidazolidin-4-one] the viability at 60 µM [1, 6] was 60%, the “increase in the number of viable cells” value ([2]; iC2C12 myoblasts) was 20% and the “increase of cells survival” value ([2]; myoblasts, 200 ng/ml dox, necrostatin-1 present, Z-VAD always added) was 34%±20. The “optimal dose from dose response” value ([2]; myoblasts) was 30 µM.

Reference: patent US20230277538A1, “THERAPEUTICS FOR THE TREATMENT OF FSHD” (UCL BUSINESS LTD, priority 2020, published 2023)
